# Experimental data reported in the supplement of paper PMC6045584.
# ± gives the standard deviation of the averaged measurements.
# How the values were obtained:
# DOXORUBICIN = compound: COc1cccc2c1C(=O)c1c(O)c3c(c(O)c1C2=O)C[C@@](O)(C(=O)CO)C[C@@H]3O[C@H]1C[C@H](N)[C@H](O)[C@H](C)O1 [DOXORUBICIN]; experiment: surviving fraction relative to DMSO-only wells; higher = less growth inhibition; settings: exposure time: 5 days
# Summary of the method: (§1)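 In 384-well plates, 250–500 log-phase tumour cells per well were given 24 hours before five days of continuous exposure to inhibitors at 0.5, 1, 5, 10, 50, 100, 500 and 1000 nM. Surviving fraction is luminescence from CellTiter-Glo, normalised to the median of wells containing DMSO alone. Reading took place after 10 minutes at room temperature.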
# VISMODEGIB = compound: CS(=O)(=O)c1ccc(C(=O)Nc2ccc(Cl)c(-c3ccccn3)c2)c(Cl)c1 [VISMODEGIB]; experiment: as above; settings: exposure time: 5 days
# Summary of the method: as §1
Test System,surviving fraction (DOXORUBICIN; 0.5 nM),surviving fraction (DOXORUBICIN; 1 nM),surviving fraction (DOXORUBICIN; 5 nM),surviving fraction (DOXORUBICIN; 10 nM),surviving fraction (DOXORUBICIN; 50 nM),surviving fraction (DOXORUBICIN; 100 nM),surviving fraction (DOXORUBICIN; 500 nM),surviving fraction (DOXORUBICIN; 1000 nM),surviving fraction (VISMODEGIB; 0.5 nM),surviving fraction (VISMODEGIB; 1 nM),surviving fraction (VISMODEGIB; 5 nM),surviving fraction (VISMODEGIB; 10 nM),surviving fraction (VISMODEGIB; 50 nM),surviving fraction (VISMODEGIB; 100 nM),surviving fraction (VISMODEGIB; 500 nM),surviving fraction (VISMODEGIB; 1000 nM)
22RV1 PROSTATE,1.02 ± 0.018,0.917 ± 0.047,0.618 ± 0.055,0.416 ± 0.047,0.222 ± 0.03,0.119 ± 0.026,0.024 ± 0.001,0.0357 ± 0.0025,1.01 ± 0.061,1.04 ± 0.029,0.962 ± 0.013,0.974 ± 0.0072,0.924 ± 0.037,1.102 ± 0.0057,1.04 ± 0.022,1.09 ± 0.068
93VU HEADNECK,1.03 ± 0.063,1.08 ± 0.11,1.12 ± 0.085,1.09 ± 0.06,0.697 ± 0.049,0.525 ± 0.046,0.249 ± 0.034,0.109 ± 0.016,0.962 ± 0.03,1.08 ± 0.057,1.06 ± 0.03,1.02 ± 0.14,0.868 ± 0.025,0.964 ± 0.093,0.849 ± 0.061,0.915 ± 0.04
143B BONE,1 ± 0.018,1.02 ± 0.0085,0.957 ± 0.0099,0.827 ± 0.013,0.417 ± 0.027,0.2785 ± 0.00071,0.0605 ± 0.0035,1.008 ± 0.0092,0.945 ± 0.063,0.98 ± 0.047,0.932 ± 0.1,0.993 ± 0.069,0.966 ± 0.042,0.965 ± 0.013,1.01 ± 0.046,1.01 ± 0.057
A549 LUNG,0.96 ± 0.032,0.964 ± 0.039,0.963 ± 0.046,1.01 ± 0.032,0.565 ± 0.031,0.496 ± 0.017,0.189 ± 0.015,0.083 ± 0.001,0.979 ± 0.018,0.9893 ± 0.0035,1.01 ± 0.033,1.02 ± 0.045,0.994 ± 0.017,1.06 ± 0.035,1.01 ± 0.032,1.03 ± 0.069
ASKA SYNOVIAL,0.792 ± 0.014,0.5807 ± 0.0031,0.28 ± 0.0042,0.292 ± 0.007,0.204 ± 0.016,0.166 ± 0.0025,0.16 ± 0.0079,0.224 ± 0.0035,1.04 ± 0.03,1.07 ± 0.046,1.08 ± 0.086,1.11 ± 0.039,0.939 ± 0.03,0.964 ± 0.05,0.926 ± 0.048,0.951 ± 0.055
BT20 BREAST,1.1 ± 0.033,1.02 ± 0.11,0.823 ± 0.034,0.469 ± 0.07,0.187 ± 0.019,0.191 ± 0.025,0.042 ± 0.01,0.037 ± 0.0056,1.08 ± 0.13,0.977 ± 0.039,1.01 ± 0.062,1.02 ± 0.048,0.964 ± 0.086,0.901 ± 0.058,0.898 ± 0.032,0.907 ± 0.11
BT549 BREAST,1.07 ± 0.1,1.03 ± 0.23,0.896 ± 0.087,0.378 ± 0.095,0.229 ± 0.022,0.0903 ± 0.019,0.0257 ± 0.0057,0.0267 ± 0.0015,1.02 ± 0.047,1.01 ± 0.12,1.09 ± 0.15,1.09 ± 0.15,0.76 ± 0.23,0.799 ± 0.19,0.744 ± 0.071,0.75 ± 0.018
C33A CERVIX,0.842 ± 0.066,0.988 ± 0.068,0.779 ± 0.055,0.604 ± 0.045,0.122 ± 0.013,0.085 ± 0.0096,0.0347 ± 0.0086,0.04 ± 0.0079,0.872 ± 0.066,1.007 ± 0.0076,1.12 ± 0.087,0.985 ± 0.061,0.879 ± 0.066,1 ± 0.069,0.851 ± 0.055,0.953 ± 0.066
CADOES1 SOFT TISSUE,0.93 ± 0.061,0.795 ± 0.037,0.926 ± 0.078,0.812 ± 0.12,0.573 ± 0.052,0.323 ± 0.035,0.093 ± 0.0087,0.0643 ± 0.011,0.884 ± 0.024,0.935 ± 0.085,0.968 ± 0.1,0.914 ± 0.056,0.952 ± 0.047,1.05 ± 0.091,0.979 ± 0.056,0.964 ± 0.073
CAL51 BREAST,0.903 ± 0.044,0.919 ± 0.026,0.872 ± 0.029,0.62 ± 0.055,0.112 ± 0.011,0.0608 ± 0.0036,0.0247 ± 0.00076,0.0238 ± 0.0015,0.895 ± 0.042,0.923 ± 0.013,0.9295 ± 0.0062,0.931 ± 0.043,0.931 ± 0.056,0.975 ± 0.071,0.9558 ± 0.009,0.963 ± 0.01
CAL72 BONE,1.05 ± 0.041,0.743 ± 0.018,1.01 ± 0.033,0.826 ± 0.045,0.298 ± 0.042,0.299 ± 0.018,0.0937 ± 0.0021,0.114 ± 0.0055,0.994 ± 0.016,1.01 ± 0.017,1.021 ± 0.0075,0.9987 ± 0.0091,0.919 ± 0.042,0.934 ± 0.025,0.922 ± 0.033,0.938 ± 0.037
CAL120 BREAST,0.955 ± 0.015,0.916 ± 0.019,0.902 ± 0.024,0.822 ± 0.065,0.401 ± 0.038,0.285 ± 0.019,0.0702 ± 0.0011,0.0468 ± 0.0028,0.987 ± 0.019,0.968 ± 0.018,0.999 ± 0.012,1 ± 0.012,0.997 ± 0.021,1.01 ± 0.013,0.942 ± 0.013,0.989 ± 0.016
CASKI CERVIX,0.684 ± 0.14,0.85 ± 0.04,0.221 ± 0.044,0.292 ± 0.049,0.035 ± 0.005,0.143 ± 0.032,0.0187 ± 0.0021,0.0253 ± 0.0015,0.939 ± 0.035,0.979 ± 0.026,0.958 ± 0.026,0.973 ± 0.046,0.828 ± 0.049,0.893 ± 0.058,0.876 ± 0.075,0.898 ± 0.084
CHLA90 AUTONOMIC GANGLIA,1 ± 0.024,0.982 ± 0.024,0.866 ± 0.053,0.763 ± 0.041,0.414 ± 0.038,0.187 ± 0.026,0.054 ± 0.0035,0.0323 ± 0.0021,0.923 ± 0.084,0.949 ± 0.06,0.962 ± 0.056,1.01 ± 0.062,0.914 ± 0.079,0.925 ± 0.013,0.92 ± 0.028,0.953 ± 0.041
CME SYNOVIAL,1.14 ± 0.094,0.998 ± 0.15,0.567 ± 0.12,0.328 ± 0.037,0.237 ± 0.023,0.215 ± 0.016,0.203 ± 0.013,0.284 ± 0.036,1.24 ± 0.088,1.2 ± 0.12,1.2 ± 0.27,1.3 ± 0.16,1.07 ± 0.098,1.12 ± 0.13,1.03 ± 0.17,0.9627 ± 0.0064
COLO320DM LARGE INTESTINE,1.07 ± 0.064,1.13 ± 0.02,1.13 ± 0.12,1.09 ± 0.035,1.05 ± 0.091,0.787 ± 0.14,0.446 ± 0.014,0.388 ± 0.02,1.02 ± 0.063,1.03 ± 0.12,1.14 ± 0.081,1.06 ± 0.069,1.05 ± 0.094,1.02 ± 0.087,1.04 ± 0.092,0.977 ± 0.095
DU4475 BREAST,0.818 ± 0.31,1.23 ± 0.41,0.233 ± 0.071,0.139 ± 0.054,0.029 ± 0.0066,0.0287 ± 0.0051,0.025 ± 0.0046,0.0273 ± 0.0051,0.969 ± 0.25,1.1 ± 0.28,1 ± 0.1,0.895 ± 0.29,1.1 ± 0.41,0.876 ± 0.17,0.899 ± 0.22,0.977 ± 0.32
H23 LUNG,1.01 ± 0.016,1.03 ± 0.027,1 ± 0.034,0.629 ± 0.058,0.403 ± 0.031,0.237 ± 0.028,0.0293 ± 0.0015,0.0267 ± 0.0021,0.981 ± 0.01,0.997 ± 0.043,1.05 ± 0.03,1.022 ± 0.0032,1 ± 0.069,1.16 ± 0.072,1.01 ± 0.034,1.06 ± 0.067
HCC78 LUNG,0.894 ± 0.24,0.733 ± 0.17,0.63 ± 0.1,0.538 ± 0.083,0.0747 ± 0.013,0.0363 ± 0.0042,0.0317 ± 0.0015,0.0217 ± 0.0042,1.08 ± 0.11,0.941 ± 0.1,0.982 ± 0.14,1.11 ± 0.14,1.1 ± 0.21,1.32 ± 0.2,1.04 ± 0.13,0.934 ± 0.19
HCC202 BREAST,1.2 ± 0.18,1.26 ± 0.26,0.896 ± 0.058,1.04 ± 0.49,0.697 ± 0.069,0.457 ± 0.065,0.0987 ± 0.019,0.0423 ± 0.0078,1.1 ± 0.14,0.842 ± 0.13,1.06 ± 0.2,1.04 ± 0.25,0.945 ± 0.46,0.785 ± 0.2,0.908 ± 0.14,0.732 ± 0.14
